Reference: US10689354B2, “Aminoazole derivative” (Teijin Pharma Limited, priority 2015, dated 2020)

Legend:
[1] = molecular target: T1, androgen receptor (AR-LBD) (Rattus norvegicus, UniProt P15207); assay: Evaluation of androgen receptor affinity (PolarScreen Androgen Receptor Competitor Assay Kit, Red; fluorescence polarization); settings: 22° C. for 5 hours, relative to binding rate of 1 μM DHT, read-out: AR affinity (pEC50) (converted)
T1 construct: 5 μL of 2×AR-LBD/Fluoromone AL Red Complex contained in the kit; purchased Invitrogen
T1 sequence (P15207 651-882 limits assumed): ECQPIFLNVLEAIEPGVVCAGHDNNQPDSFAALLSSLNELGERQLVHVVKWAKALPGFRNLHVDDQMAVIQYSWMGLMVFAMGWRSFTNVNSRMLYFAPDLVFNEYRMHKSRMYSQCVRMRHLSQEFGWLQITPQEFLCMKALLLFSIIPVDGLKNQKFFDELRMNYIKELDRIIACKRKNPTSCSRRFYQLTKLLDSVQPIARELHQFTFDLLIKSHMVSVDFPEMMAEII
Method in brief: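 Duplicate wells; compound plus AR-LBD tracer complex incubated 22° C for 5 h, then FP measured. Effect compared with 1 μM DHT; 50%-effect concentration expressed as pEC50.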

human androgen receptor = molecular target: T2, human androgen receptor (Homo sapiens, UniProt P10275); assay: Reporter assay of an androgen receptor responsive sequence (luciferase, transiently transfected HEK293 cells); format: cell-based; settings: 24 hours incubation, relative to activity of 100 nM DHT, read-out: AR transcriptive activity (pEC50) (converted)
T2 construct: expressed in transfected cells; host or cells: HEK293
T2 sequence (P10275 1-920): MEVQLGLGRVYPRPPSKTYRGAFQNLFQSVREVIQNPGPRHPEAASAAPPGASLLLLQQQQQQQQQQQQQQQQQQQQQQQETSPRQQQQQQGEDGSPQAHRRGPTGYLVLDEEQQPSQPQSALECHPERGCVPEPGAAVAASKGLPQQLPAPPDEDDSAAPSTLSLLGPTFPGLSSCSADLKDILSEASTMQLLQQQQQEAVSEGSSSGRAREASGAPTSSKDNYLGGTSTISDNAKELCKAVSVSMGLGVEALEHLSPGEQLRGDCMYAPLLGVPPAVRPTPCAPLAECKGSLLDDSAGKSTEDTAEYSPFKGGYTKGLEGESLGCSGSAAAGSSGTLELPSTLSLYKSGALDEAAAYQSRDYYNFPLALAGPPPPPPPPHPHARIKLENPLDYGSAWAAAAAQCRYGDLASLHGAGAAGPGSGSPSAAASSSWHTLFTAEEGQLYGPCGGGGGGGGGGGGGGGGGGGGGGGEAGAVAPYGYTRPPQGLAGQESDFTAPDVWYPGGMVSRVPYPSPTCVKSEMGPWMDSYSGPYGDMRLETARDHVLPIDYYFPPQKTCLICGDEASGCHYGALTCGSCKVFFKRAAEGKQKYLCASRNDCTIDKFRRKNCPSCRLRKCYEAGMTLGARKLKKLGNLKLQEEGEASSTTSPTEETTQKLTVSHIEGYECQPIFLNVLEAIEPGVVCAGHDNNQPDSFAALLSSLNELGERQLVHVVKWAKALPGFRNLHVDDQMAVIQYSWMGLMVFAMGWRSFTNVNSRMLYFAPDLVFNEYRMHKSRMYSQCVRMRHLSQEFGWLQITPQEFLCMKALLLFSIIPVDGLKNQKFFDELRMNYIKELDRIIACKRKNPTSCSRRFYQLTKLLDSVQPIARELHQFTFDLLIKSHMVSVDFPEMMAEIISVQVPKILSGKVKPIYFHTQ
Method in brief: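 Agonism scored as pEC50, fitted by 4-parameter curve against the response to 100 nM DHT, from dual-luciferase readout after 24 h compound treatment. Cells were HEK293 co-transfected (3 h) with human AR expression vector, androgen-responsive firefly reporter and Renilla control, in charcoal-stripped serum.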

SMILES	EC50 [1] [nM]	EC50 (human androgen receptor) [nM]
Cc1sc(N(Cc2ccc(OCc3ccccc3)cc2)c2ccc(C#N)cc2)nc1C(=O)NS(C)(=O)=O [Compound 393, 2-[N-[(4-benzyloxyphenyl)methyl]-4-cyano-anilino]-5-methyl-N-methylsulfonyl-thiazole-4-carboxamide]	31.6	398
Cc1sc(N(Cc2ccccc2)c2ccc(C#N)cc2)nc1C(=O)NS(=O)(=O)Cc1ccncc1 [Compound 395, 2-(N-benzyl-4-cyano-anilino)-5-methyl-N-(4-pyridylmethylsulfonyl)thiazole-4-carboxamide]	100	158
Cc1sc(N(Cc2ccccc2)c2ccc(C#N)cc2)nc1C(=O)NS(=O)(=O)Cc1ccccn1 [Compound 396, 2-(N-benzyl-4-cyano-anilino)-5-methyl-N-(2-pyridylmethylsulfonyl)thiazole-4-carboxamide]	316	6310
Cc1sc(N(Cc2ccccc2)c2ccc(C#N)cc2)nc1C(=O)NS(=O)(=O)Cc1cccnc1 [Compound 397, 2-(N-benzyl-4-cyano-anilino)-5-methyl-N-(3-pyridylmethylsulfonyl)thiazole-4-carboxamide]	63.1	126
COc1cccc(CCN(c2ccc(C#N)cc2)c2nc(C(=O)NS(C)(=O)=O)c(C)s2)c1 [Compound 399, 2-[4-cyano-N-[2-(3-methoxyphenyl)ethyl]anilino]-5-methyl-N-methylsulfonyl-thiazole-4-carboxamide]	251	> 10000
COc1ccc(CCN(c2ccc(C#N)cc2)c2nc(C(=O)NS(C)(=O)=O)c(C)s2)cc1 [Compound 400, 2-[4-cyano-N-[2-(4-methoxyphenyl)ethyl]anilino]-5-methyl-N-methylsulfonyl-thiazole-4-carboxamide]	631	> 10000
Cc1sc(N(CCc2cccc(O)c2)c2ccc(C#N)cc2)nc1C(=O)NS(C)(=O)=O [Compound 401, 2-[4-cyano-N-[2-(3-hydroxyphenyl)ethyl]anilino]-5-methyl-N-methylsulfonyl-thiazole-4-carboxamide]	158	1580
Cc1sc(N(Cc2ccc3ncccc3c2)c2ccc(C#N)cc2)nc1C(=O)NS(C)(=O)=O [Compound 403, 2-[4-cyano-N-(6-quinolylmethyl)anilino]-5-methyl-N-methylsulfonyl-thiazole-4-carboxamide]	251	251
Cc1sc(N(Cc2ccc3nccnc3c2)c2ccc(C#N)cc2)nc1C(=O)NS(C)(=O)=O [Compound 404, 2-[4-cyano-N-(quinoxalin-6-ylmethyl)anilino]-5-methyl-N-methylsulfonyl-thiazole-4-carboxamide]	1000	3160
Cc1sc(N(CCC2CCCC2O)c2ccc(C#N)cc2)nc1C(=O)NS(C)(=O)=O (centres unmarked) [Compound 406, 2-[4-cyano-N-[2-(2-hydroxycyclopentyl)ethyl]anilino]-5-methyl-N-methylsulfonyl-thiazole-4-carboxamide]	794	2510
Cc1sc(N(CCC2CCCCC2)c2ccc(C#N)cc2)nc1C(=O)NS(C)(=O)=O [Compound 407, 2-[4-cyano-N-(2-cyclohexylethyl)anilino]-5-methyl-N-methylsulfonyl-thiazole-4-carboxamide]	50.1	200
Cc1sc(N(Cc2ccc(Cl)cc2Cl)c2ccc(C#N)cc2)nc1C(=O)NS(C)(=O)=O [Compound 413, 2-[4-cyano-N-[(2,4-dichlorophenyl)methyl]anilino]-5-methyl-N-methylsulfonyl-thiazole-4-carboxamide]	25.1	501
Cc1sc(N(Cc2cc(F)cc(C(F)(F)F)c2)c2ccc(C#N)cc2)nc1C(=O)NS(C)(=O)=O [Compound 416, 2-[4-cyano-N-[[3-fluoro-5-(trifluoromethyl)phenyl]methyl]anilino]-5-methyl-N-methylsulfonyl-thiazole-4-carboxamide]	25.1	158
Cc1sc(N(Cc2cc(C(F)(F)F)ccc2Cl)c2ccc(C#N)cc2)nc1C(=O)NS(C)(=O)=O [Compound 417, 2-[N-[[2-chloro-5-(trifluoromethyl)phenyl]methyl]-4-cyano-anilino]-5-methyl-N-methylsulfonyl-thiazole-4-carboxamide]	316	> 10000
COc1c(F)c(CN(c2ccc(C#N)cc2)c2nc(C(=O)NS(C)(=O)=O)c(C)s2)c(F)c(F)c1C(F)(F)F [Compound 418, 2-[4-cyano-N-[[2,3,6-trifluoro-5-methoxy-4-(trifluoromethyl)phenyl]methyl]anilino]-5-methyl-N-methylsulfonyl-thiazole-4-carboxamide]	50.1	158
Cc1sc(N(Cc2ccc([S+]([O-])C(F)(F)F)cc2)c2ccc(C#N)cc2)nc1C(=O)NS(C)(=O)=O (centres unmarked) [Compound 419, 2-[4-cyano-N-[[4-(trifluoromethylsulfinyl)phenyl]methyl]anilino]-5-methyl-N-methylsulfonyl-thiazole-4-carboxamide]	63.1	631
Cc1sc(N(Cc2ccc(OC(F)(F)F)c(F)c2)c2ccc(C#N)cc2)nc1C(=O)NS(C)(=O)=O [Compound 420, 2-[4-cyano-N-[[3-fluoro-4-(trifluoromethoxy)phenyl]methyl]anilino]-5-methyl-N-methylsulfonyl-thiazole-4-carboxamide]	20	158
Cc1sc(N(Cc2ccc(OC(F)(F)F)c(Cl)c2)c2ccc(C#N)cc2)nc1C(=O)NS(C)(=O)=O [Compound 421, 2-[N-[[3-chloro-4-(trifluoromethoxy)phenyl]methyl]-4-cyano-anilino]-5-methyl-N-methylsulfonyl-thiazole-4-carboxamide]	20	200
CSc1cccc(CN(c2ccc(C#N)cc2)c2nc(C(=O)NS(C)(=O)=O)c(C)s2)c1 [Compound 431, 2-[4-cyano-N-[(3-methylsulfanylphenyl)methyl]anilino]-5-methyl-N-methylsulfonyl-thiazole-4-carboxamide]	20	316
Cc1sc(N(Cc2cccc3nsnc23)c2ccc(C#N)cc2)nc1C(=O)NS(C)(=O)=O [Compound 437, 2-[N-(2,1,3-benzothiadiazol-4-ylmethyl)-4-cyano-anilino]-5-methyl-N-methylsulfonyl-thiazole-4-carboxamide]	50.1	126
Cc1sc(N(CCCC(C)C)c2ccc(C#N)cc2)nc1C(=O)NS(C)(=O)=O [Compound 438, 2-(4-cyano-N-isohexyl-anilino)-5-methyl-N-methylsulfonyl-thiazole-4-carboxamide]	25.1	398
CC(C)=CCN(c1ccc(C#N)cc1)c1nc(C(=O)NS(C)(=O)=O)c(C)s1 [Compound 439, 2-[4-cyano-N-(3-methylbut-2-enyl)anilino]-5-methyl-N-methylsulfonyl-thiazole-4-carboxamide]	50.1	126
Cc1sc(N(CCC2CCCC(O)C2)c2ccc(C#N)cc2)nc1C(=O)NS(C)(=O)=O (centres unmarked) [Compound 442, 2-[4-cyano-N-[2-(3-hydroxycyclohexyl)ethyl]anilino]-5-methyl-N-methylsulfonyl-thiazole-4-carboxamide]	316	1260
Cc1sc(N(CCC2CCCCO2)c2ccc(C#N)cc2)nc1C(=O)NS(C)(=O)=O (centres unmarked) [Compound 443, 2-[4-cyano-N-(2-tetrahydropyran-2-ylethyl)anilino]-5-methyl-N-methylsulfonyl-thiazole-4-carboxamide]	200	501
Cc1sc(N(CC2CC3CCC2C3)c2ccc(C#N)cc2)nc1C(=O)NS(C)(=O)=O (centres unmarked) [Compound 447, 2-[4-cyano-N-(norbornan-2-ylmethyl)anilino]-5-methyl-N-methylsulfonyl-thiazole-4-carboxamide]	50.1	2510
